Measured values published in US20230382915A1, “GCN2 AND PERK KINASE INHIBITORS AND METHODS OF USE THEREOF” (Deciphera Pharmaceuticals, LLC, priority 2021, published 2023).
pIC50: −log10 of the molar value.

Experiments:
[1] = test system: ATF4 in HCT116 colorectal cancer cells; experiment: HCT116 amino acid starved (-AA) ATF4 Western blot; format: cell-based; details: Homo sapiens, HCT-116, 4 h
Experimental: HCT116 colorectal cancer cells (catalog #CCL-247) were obtained from the American Type Culture Collect (ATTC, Manassas, VA). Briefly, cells were grown in RPMI 1640 supplemented with 10% heat inactivated fetal bovine serum (Invitrogen, Carlsbad, CA) and 1% Penicillin/Streptomycin/L-Glutamine at 37° C., 5% CO2, and 95% humidity. Cells were expanded until reaching 70-95% confluency at which point they were subcultured or harvested for assay use. Cells were seeded in 12-well culture plate at five hundred thousand cells per well in 1 mL complete growth medium and incubated overnight at 37° C., 5% CO2, and 95% humidity. The next day each well was replaced with 1 mL Earle's Balanced Salt Solution (EBSS, Invitrogen, Carlsbad, CA) supplemented with 10% Dialyzed Fetal Bovine Serum, 5.5 mM Glucose, 1% Penicillin/Streptomycin and 1% Vitamin solution (thermo #11120052). A serial dilution of test compound was dispensed into well. Plates were incubated for 4 h at 37° C., 5% CO2, and 95% humidity. […] Western blot was performed on each lysate to quantify phospho-GCN2 (Thr899), total GCN2, ATF4 and beta-Actin. […] Data were analyzed using GraphPad Prism software (GraphPad, San Diego, CA) to calculate IC50 values.

[2] = test system: ATF4 levels in HT-1080 fibrosarcoma xenograft; experiment: HT-1080 fibrosarcoma xenograft PK/PD model; format: in vivo, mice
Experimental: The HT-1080 xenograft model was performed in compliance with all the laws, regulations and guidelines of the National Institutes of Health (NIH) and with the approval of the Animal Care and Use Committee of Labcorp (Ann Arbor, MI), an AAALAC accredited facility. Food and water were provided ad libitum. […] Female nude mice (6-7 weeks old) were inoculated subcutaneously just below the right high axilla with two million cells in Dulbecco's Phosphate Buffered Saline, using a 27-gauge needle and syringe. When tumor burdens reached 150 mm 3 on average on day 6, mice were randomly assigned into groups such that the mean tumor burden for all groups was within 10% of the overall mean tumor burden for the study population. Groups were treated on days 6-11 as follows: vehicle control (dosed orally) (n=9); Compound 2 dosed orally at 10 mg/kg BID (n=9); Compound 2 dosed orally at 5 mg/kg BID; Compound 2 dosed orally at 1 mg/kg BID (n=9) prior to sample harvest at 2, 6 and 10 h post dose on day 11. Blood samples were collected in K2EDTA tubes and processed into plasma, snap frozen in liquid nitrogen then stored at −80° C. Plasma samples were subjected to pharmacokinetic analysis using liquid chromatography coupled with tandem mass spectrometry analysis (Cayman Chemical, Ann Arbor, MI). Tumors were harvested and powdered over liquid nitrogen in covaris bags and stored at −80° C. For tissue sample processing roughly 30 mg of tumor tissue was lysed in MPER lysis buffer (Thermo Fisher Scientific, Waltham, MA) supplemented with 3× Halt protease inhibitor, 3×Halt phosphatase inhibitor, 3× Sigma phosphatase inhibitor cocktail 2 and 3×EDTA on ice then homogenized using Bead Ruptor 96 (Omni, Kennesaw, GA). […] Protein concentrations were determined using BCA protein assay kit (Thermo Fisher Scientific, Waltham, MA). […] Samples were resolved using SDS-PAGE then analyzed using Western blot to quantify ATF4 and beta-Actin (Cell Signaling Technology, Danvers, MA). […] Data was analyzed using GraphPad Prism software (GraphPad, San Diego, CA) to calculate % inhibition.

[3] = test system: HT-1080 solid tumor spheroids; experiment: Spheroid proliferation assay, HT-1080; format: cell-based; details: Homo sapiens, HT-1080, 120 h; 5 days, FIG. 11C; read-out: inhibition of cell proliferation IC50, single agent
Experimental: Non Small Cell Lung Cancer (NSCLC) cell lines H358 (catalog #CRL-5807) and H2030 (catalog #CRL-5914), and fibrosarcoma line HT-1080 (catalog […]) were obtained from the American Type Culture Collect (ATTC, Manassas, VA). Cells were grown in RPMI-1640 medium supplemented with 10% heat-inactivated fetal bovine serum and 1% Penicillin/Streptomycin/L-Glutamine (Invitrogen, Carlsbad, CA) at 37° C., 5% CO2, and 95% humidity and maintained at 50-80% confluency until use. 500-1000 cells were plated in 96-well ultra-low attachment plates (Corning, Glendale, AZ) with complete growth media at 80 μL/well and incubated overnight at 37° C., 5% CO2, and 95% humidity to form spheroids. The next day, serial dilutions of test compounds were prepared in complete growth media and 20 μL/well media containing compound titers was added to spheroids in triplicate. Spheroids were then incubated with test compounds for 5 days under the same conditions. At the end of the incubation, spheroids were lysed with 100 μL/well CellTiter-Glo 3D Viability Assay (Promega, Madison, WI) and luminescence was detected using Synergy2 or equivalent reader (Biotek, Winooski, VT). Data was analyzed using GraphPad Prism software (GraphPad, San Diego, CA) to calculate IC50 values.

Cn1cc(-c2cccc(NS(=O)(=O)c3cc(Cl)cc(CO)c3Cl)c2F)c2c(N)ncnc21 [Example 2, N-(3-(4-amino-7-methyl-7H-pyrrolo[2,3-d]pyrimidin-5-yl)-2-fluorophenyl)-2,5-dichloro-3-(hydroxymethyl)benzenesulfonamide]
pIC50 [1]: ≥ 7.00
upregulation of ATF4 levels compared to vehicle control ([2]; 1 mg/kg BID orally): 3 fold
upregulation of ATF4 levels compared to vehicle control ([2]; 5 mg/kg BID orally): 3.5 fold
upregulation of ATF4 levels compared to vehicle control ([2]; 10 mg/kg BID orally): 4.5 fold
pIC50 [3]: 7.92
